We go through 1 molecule from article PMC11476419, “Analysis of Punicalin and Punicalagin Interaction with PDIA3 and PDIA1” (International Journal of Molecular Sciences, 2024).

Molecules are shown by their SMILES.

The target of one experiment is T1, PDIA3 (Homo sapiens, UniProt P30101).
T1 construct: The mature recombinant form (devoid of the N-terminal […]) of the human PDIA3 protein was expressed and purified; made in house
T1 sequence (P30101 25-505): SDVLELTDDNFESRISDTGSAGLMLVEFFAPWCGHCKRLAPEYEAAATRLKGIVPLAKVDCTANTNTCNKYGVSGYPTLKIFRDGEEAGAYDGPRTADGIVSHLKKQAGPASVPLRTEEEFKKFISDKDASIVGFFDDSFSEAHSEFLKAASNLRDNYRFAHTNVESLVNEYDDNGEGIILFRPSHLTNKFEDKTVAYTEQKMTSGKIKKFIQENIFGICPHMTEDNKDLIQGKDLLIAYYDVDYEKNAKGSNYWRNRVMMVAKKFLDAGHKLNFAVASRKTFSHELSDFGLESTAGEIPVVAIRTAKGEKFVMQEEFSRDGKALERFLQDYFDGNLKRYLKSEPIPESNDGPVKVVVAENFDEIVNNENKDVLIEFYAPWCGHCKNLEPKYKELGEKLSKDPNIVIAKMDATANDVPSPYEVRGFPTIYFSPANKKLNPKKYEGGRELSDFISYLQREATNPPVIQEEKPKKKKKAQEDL
In words: Intrinsic tryptophan fluorescence quenching. Format: binding. The method, then:
(§1) In a previous article, we evaluated the ability of punicalagin to interact with PDIA1 and PDIA3 [40]. In this study, the results previously obtained were compared with those obtained using punicalin. The protein–ligand interaction was evaluated by intrinsic quenching analysis due to the presence, in both proteins, of aromatic amino acids, among which tryptophan residues represent the main source. Quenching analysis was performed on PDIA1 and PDIA3, in the reduced form, by adding increasing concentrations of punicalin and recording the fluorescence spectra of both proteins. […] Quenching of intrinsic tryptophan fluorescence of both proteins was assessed using the Stern–Volmer equation, as previously reported. To further characterize the binding process, fluorescence data were analyzed using the equation described by Bi et al. and the reiterative calculation process described by Sun et al., providing an estimated value of the dissociation constant (Kd). The values of the Stern–Volmer constant (KSV) and the Kd obtained for punicalin are summarized in Table 1 and compared with those obtained for punicalagin [40]. The comparison of the results confirms that punicalin can bind both PDIs, although showing a slightly lesser affinity with respect to punicalagin.
(§2) The mature recombinant form (devoid of the N-terminal […]) of the human PDIA3 protein was expressed and purified according to the procedure previously described. […] In both cases, protein purification was evaluated by SDS-PAGE and Coomassie Blue staining, while the concentration was spectrophotometrically estimated using the extinction coefficient (PDIA3 in the reduced form, ε280 = 44,810 M^−1cm^−1; PDIA1 in the reduced form, ε280 = 45,567 M^−1cm^−1).
(§3) Protein–ligand interactions were evaluated by titration of intrinsic fluorescence quenching. Protein mission spectra were recorded by a SPEX-FluoroMax spectrofluorometer (Horiba Scientific, Piscataway, NJ, USA) from 300 to 400 nm, with an excitation wavelength set at 290 nm, emission slit set width, a 2 nm bandpass, and a scan speed set at 120 nm min^−1. […] The emission spectrum of the protein was recorded and the fluorescence intensities at 338 nm, obtained in at least three independent titration experiments, were used for quenching analyses, as previously described. Quenching of intrinsic tryptophan fluorescence at 338 nm was analyzed by the Stern–Volmer equation (Fo/F = 1 + KSV[L]), where F and Fo are the fluorescence intensity, respectively with or without ligand (L), and KSV is the Stern–Volmer constant value. Fluorescence data at 338 nm were also analyzed using the equation described by Bi et al. and the reiterative calculation process described by Sun et al., providing an estimated value of Kd.

A further experiment addresses T2, PDIA1 (Homo sapiens, UniProt P07237).
T2 construct: The mature human PDIA1 with an N-terminal His6x-tag was expressed and purified; His6 (N); made in house
In words: Intrinsic tryptophan fluorescence quenching. Type of experiment: binding. The method, then:
as §1, §2, §3

T2 sequence (P07237 18-508): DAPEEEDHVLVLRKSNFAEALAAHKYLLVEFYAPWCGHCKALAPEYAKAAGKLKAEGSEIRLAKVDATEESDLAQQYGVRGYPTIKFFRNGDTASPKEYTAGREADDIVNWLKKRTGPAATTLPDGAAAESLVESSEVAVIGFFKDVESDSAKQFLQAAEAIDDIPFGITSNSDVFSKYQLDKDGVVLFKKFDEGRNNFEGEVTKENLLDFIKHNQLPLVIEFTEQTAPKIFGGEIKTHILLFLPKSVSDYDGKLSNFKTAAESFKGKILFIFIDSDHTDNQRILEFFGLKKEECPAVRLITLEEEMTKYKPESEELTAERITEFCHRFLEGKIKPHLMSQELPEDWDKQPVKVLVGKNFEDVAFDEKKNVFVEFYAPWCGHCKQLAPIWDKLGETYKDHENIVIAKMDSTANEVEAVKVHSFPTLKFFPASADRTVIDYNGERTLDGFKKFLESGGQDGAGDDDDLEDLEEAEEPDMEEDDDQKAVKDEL

On to `O=C1OC[C@H]2OC(O)[C@H](O)[C@@H](O)[C@@H]2OC(=O)c2cc(O)c(O)c(O)c2-c2c(O)c(O)c3oc(=O)c4c(c(O)c(O)c5oc(=O)c2c3c54)-c2c1cc(O)c(O)c2O` (mixture of isomers) [Punicalin, punicalin], for which the “Stern–Volmer constant (KSV)” value at PDIA3 (reduced PDIA3 0.1 × 10^−6 M, pH 7.4, 25 °C, mean and SEM) is 73.7 ± 0.7 M^−1 × 10^3; on PDIA1 (reduced PDIA1 0.1 × 10^−6 M, pH 7.4, 25 °C, mean and SEM), 64.0 ± 0.4 M^−1 × 10^3. Also, the Kd (usually a measure of binding affinity in units of concentration) on PDIA3 (reduced PDIA3, pH 7.4, 25 °C, estimated from quenching data, read-out: dissociation constant (Kd)) was 14 µM; at PDIA1 (reduced PDIA1, pH 7.4, 25 °C, estimated from quenching data, read-out: dissociation constant (Kd)) it was 16 µM.
